From patent publication US7449465B2, “Triazolopyrimidine derivatives as glycogen synthase kinase 3 inhibitors” (Janssen Pharmaceutica, N.V., priority 2003, dated 2008) come the findings set out here.

In one assay the target is GSK3β (Homo sapiens, UniProt P49841). Kind of assay: GSK3beta assay (SPA, biotinylated phosphorylated CREB peptide, ATP-P33). Format: biochemical. The following applies: ranges of pIC50 (−log IC50 (M)); 1 μM ATP, room temperature, one hour; read-out: GSK3b pIC50 (converted). As for the experimental part: (§1) GSK3beta assays were performed at room temperature in a 100 μl reaction volume of 25 mM Tris (pH 7.4) containing 10 mM MgCl2.6H2O, 1 mM DTI, 0.1 mgiml BSA, 5% glycerol and containing 5.7 ng/μl GSK3β, 5 μM biotinylated phosphorylated CREB peptide, 1 μM ATP, 0.85 μCi/ml ATP-P^33 and a suitable amount of a test compound of formula (I). After one hour, the reaction was terminated by adding 70 μl of Stop mix (0.1 mM ATP, 5 mg/ml streptavidin coated PVT SPA bead pH 11.0). The beads to which the phosphorylated CREB peptide is attached were allowed to settle overnight and the radioactivity of the beads was counted in a microtiterplate scintillation counter and compared with the results obtained in a control experiment (without the presence of a test compound) in order to determine the percentage of GSK3β inhibition. The IC50 value, i.e. the concentration (M) of the test compound at which 50% of GSK3β is inhibited, was calculated from the dose response curve obtained by performing the above-described GSK3β assay in the presence of different amounts of the test compound.

Another assay addresses GSK3alpha (Homo sapiens, UniProt P49840). Kind of assay: GSK3alpha assay (same as the GSK3beta assay, 0.25 ng/μl GSK3alpha). Format: biochemical. The note with it: ranges of pIC50 (−log IC50 (M)), 1 μM ATP, read-out: GSK3a pIC50 (converted). As for the experimental part:
as §1
The GSK3alpha assay was performed in the same way as described above for the GSK3beta assay except for the concentration of GSK3alpha which is 0.25 ng/μl.

Chain of GSK3β (P49841 whole entry, species assumed): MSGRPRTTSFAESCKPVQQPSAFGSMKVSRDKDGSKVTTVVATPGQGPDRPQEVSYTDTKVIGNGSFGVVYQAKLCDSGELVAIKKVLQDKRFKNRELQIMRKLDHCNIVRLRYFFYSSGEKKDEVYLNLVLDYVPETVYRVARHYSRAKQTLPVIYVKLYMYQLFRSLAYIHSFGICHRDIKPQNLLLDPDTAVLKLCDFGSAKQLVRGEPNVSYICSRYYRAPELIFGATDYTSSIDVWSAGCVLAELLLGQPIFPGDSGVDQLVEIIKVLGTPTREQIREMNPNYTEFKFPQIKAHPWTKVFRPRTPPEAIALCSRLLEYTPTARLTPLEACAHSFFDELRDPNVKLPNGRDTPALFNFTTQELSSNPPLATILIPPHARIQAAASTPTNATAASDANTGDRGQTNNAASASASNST
Chain of GSK3alpha (P49840 whole entry, species assumed): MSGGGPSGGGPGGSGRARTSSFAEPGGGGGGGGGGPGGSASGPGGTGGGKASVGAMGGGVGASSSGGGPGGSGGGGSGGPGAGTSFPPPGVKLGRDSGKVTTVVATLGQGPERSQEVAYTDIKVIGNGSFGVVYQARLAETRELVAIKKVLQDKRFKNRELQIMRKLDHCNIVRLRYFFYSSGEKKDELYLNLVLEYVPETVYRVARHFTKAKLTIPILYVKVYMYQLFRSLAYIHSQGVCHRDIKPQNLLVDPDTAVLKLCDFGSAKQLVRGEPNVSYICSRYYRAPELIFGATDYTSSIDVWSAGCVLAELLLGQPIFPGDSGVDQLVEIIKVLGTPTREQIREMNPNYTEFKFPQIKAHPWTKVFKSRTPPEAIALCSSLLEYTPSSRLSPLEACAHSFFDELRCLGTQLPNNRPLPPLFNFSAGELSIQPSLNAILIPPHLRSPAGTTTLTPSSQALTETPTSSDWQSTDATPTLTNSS

`COc1ccc(-n2nnc3cnc(Nc4cccc(-c5nccn5C)c4)nc32)cc1` [Compound 3]: the IC50 on GSK3β was under 1e-08 M.
For the molecule `Cn1ccnc1-c1cccc(Nc2ncc3nnn(-c4cccc(C(N)=O)c4)c3n2)c1` [Compound 7], the values for the IC50 on GSK3alpha and on GSK3β were under 1e-08 M and 1e-08 to 1e-07 M, respectively.
In the same order, the values of `Cn1nccc1-c1cccc(Nc2ncc3nnn(-c4cccc(Br)c4)c3n2)c1` [Compound 8] are under 1e-08 M and over 1e-07 M.
For `c1ccc(-n2nnc3cnc(Nc4ccc(N5CCOCC5)cc4)nc32)cc1` [Compound 11] the same measures were 1e-08 to 1e-07 M and 1e-08 to 1e-07 M.
As for `Cc1cccc(-n2nnc3cnc(Nc4cccc(-c5nccn5C)c4)nc32)c1` [Compound 14], at GSK3β, the IC50 was under 1e-08 M.
Consider `COc1cccc(-n2nnc3cnc(Nc4cccc(-c5cnco5)c4)nc32)c1` [Compound 16], for which the IC50 at GSK3alpha and at GSK3β was under 1e-08 M each time.
In the case of `COc1cccc(-n2nnc3cnc(Nc4cccc(-c5nccn5C)c4)nc32)c1` [Compound 17], at GSK3β, the IC50 is under 1e-08 M.
Take `COc1cccc(-n2nnc3cnc(Nc4cccc(-c5nnn(C)n5)c4)nc32)c1` [Compound 18]: the IC50 at GSK3alpha and at GSK3β was under 1e-08 M throughout.
On to `COc1cccc(-n2nnc3cnc(Nc4cccc(-c5ccnc(N)n5)c4)nc32)c1` [Compound 19], for which the IC50 on GSK3alpha and on GSK3β was under 1e-08 M throughout.
Consider `Fc1cccc(-n2nnc3cnc(Nc4cccc(-c5cnco5)c4)nc32)c1` [Compound 20], for which the IC50 on GSK3alpha and on GSK3β was under 1e-08 M throughout.
For the molecule `Cc1nc(-c2cccc(Nc3ncc4nnn(-c5cccc(F)c5)c4n3)c2)cs1` [Compound 21], the IC50 at GSK3alpha and at GSK3β was under 1e-08 M each time.
Regarding `Fc1cccc(-n2nnc3cnc(Nc4cccc(-c5cc[nH]n5)c4)nc32)c1` [Compound 22], the IC50 on GSK3alpha and on GSK3β was under 1e-08 M throughout.
Regarding `Cn1nccc1-c1cccc(Nc2ncc3nnn(-c4cccc(F)c4)c3n2)c1` [Compound 23], the IC50 on GSK3alpha and at GSK3β was under 1e-08 M in each case.
With `Cn1ccnc1-c1cccc(Nc2ncc3nnn(-c4cccc(F)c4)c3n2)c1` [Compound 24], the IC50 at GSK3alpha and at GSK3β was under 1e-08 M each time.
With `Cn1cc(Br)c(-c2cccc(Nc3ncc4nnn(-c5cccc(F)c5)c4n3)c2)n1` [Compound 25], the IC50 on GSK3alpha and on GSK3β was 1e-08 to 1e-07 M throughout.
As for `Cn1cnnc1-c1cccc(Nc2ncc3nnn(-c4cccc(F)c4)c3n2)c1` [Compound 26], the IC50 at GSK3alpha and at GSK3β was under 1e-08 M throughout.
`Fc1cccc(-n2nnc3cnc(Nc4cccc(-c5nnn[nH]5)c4)nc32)c1` [Compound 27]: the IC50 at GSK3alpha and on GSK3β was under 1e-08 M in each case.
For the molecule `Cn1nnnc1-c1cccc(Nc2ncc3nnn(-c4cccc(F)c4)c3n2)c1` [Compound 28], the IC50 at GSK3alpha and on GSK3β was under 1e-08 M in each case.
Take `Cn1nnc(-c2cccc(Nc3ncc4nnn(-c5cccc(F)c5)c4n3)c2)n1` [Compound 29]: the IC50 at GSK3alpha and on GSK3β was under 1e-08 M in each case.
`Fc1cccc(-n2nnc3cnc(Nc4cccc(-c5cncnc5)c4)nc32)c1` [Compound 31]: the IC50 on GSK3β was under 1e-08 M.
For `Cc1nccc(-c2cccc(Nc3ncc4nnn(-c5cccc(F)c5)c4n3)c2)n1` [Compound 32], the IC50 on GSK3alpha and on GSK3β was under 1e-08 M throughout.
Consider `Nc1nccc(-c2cccc(Nc3ncc4nnn(-c5cccc(F)c5)c4n3)c2)n1` [Compound 33], for which the IC50 at GSK3alpha and at GSK3β was under 1e-08 M in each case.
With `CNc1nccc(-c2cccc(Nc3ncc4nnn(-c5cccc(F)c5)c4n3)c2)n1` [Compound 34], the IC50 at GSK3alpha and on GSK3β was under 1e-08 M in each case.
With `N#CNc1nccc(-c2cccc(Nc3ncc4nnn(-c5cccc(F)c5)c4n3)c2)n1` [Compound 35], the IC50 on GSK3alpha and at GSK3β was under 1e-08 M throughout.
In the case of `CN1CCN(c2cccc(Nc3ncc4nnn(-c5cccc(F)c5)c4n3)c2)CC1` [Compound 36], the IC50 on GSK3alpha and at GSK3β was under 1e-08 M each time.
Take `Fc1cccc(-n2nnc3cnc(Nc4ccc(-n5cccc5)cc4)nc32)c1` [Compound 37]: the IC50 at GSK3β is over 1e-07 M.
As to `Fc1cccc(-n2nnc3cnc(Nc4ccc(-c5cnco5)cc4)nc32)c1` [Compound 38], the IC50 at GSK3alpha and on GSK3β was 1e-08 to 1e-07 M each time.
Take `Fc1cccc(-n2nnc3cnc(Nc4ccc(-n5cccn5)cc4)nc32)c1` [Compound 39]: the IC50 on GSK3alpha is over 1e-07 M; on GSK3β, 1e-08 to 1e-07 M.
For `Fc1cccc(-n2nnc3cnc(Nc4ccc(-n5cncn5)cc4)nc32)c1` [Compound 40] the same measures were under 1e-08 M and under 1e-08 M.
In the same order, the values of `CCC(C)n1ncn(-c2ccc(Nc3ncc4nnn(-c5cccc(F)c5)c4n3)cc2)c1=O` (stereo not shown) [Compound 41] are 1e-08 to 1e-07 M and 1e-08 to 1e-07 M.
Regarding `Cn1nnc(-c2ccc(Nc3ncc4nnn(-c5cccc(F)c5)c4n3)cc2)n1` [Compound 42], the figures for the IC50 at GSK3alpha and on GSK3β were 1e-08 to 1e-07 M and under 1e-08 M, respectively.
Turning to `Brc1cccc(-n2nnc3cnc(Nc4cccc(C5=NCNC5)c4)nc32)c1` [Compound 43], the IC50 at GSK3alpha and at GSK3β was under 1e-08 M throughout.
With `Brc1cccc(-n2nnc3cnc(Nc4cccc(-c5ccn[nH]5)c4)nc32)c1` [Compound 44], the IC50 was under 1e-08 M at GSK3alpha and 1e-08 to 1e-07 M on GSK3β.
For `Cn1cc(Br)c(-c2cccc(Nc3ncc4nnn(-c5cccc(Br)c5)c4n3)c2)n1` [Compound 45], on GSK3β, the IC50 is 1e-08 to 1e-07 M.
On to `O=c1[nH]nc(-c2cccc(Nc3ncc4nnn(-c5cccc(Br)c5)c4n3)c2)[nH]1` [Compound 46], for which the figures for the IC50 at GSK3alpha and at GSK3β were under 1e-08 M and 1e-08 to 1e-07 M, respectively.
In the same order, the values of `Brc1cccc(-n2nnc3cnc(Nc4cccc(-c5cncnc5)c4)nc32)c1` [Compound 47] are under 1e-08 M and under 1e-08 M.
For the molecule `Cc1nccc(-c2cccc(Nc3ncc4nnn(-c5cccc(Br)c5)c4n3)c2)n1` [Compound 48], the IC50 at GSK3β was 1e-08 to 1e-07 M.
For the molecule `Cn1ccnc1-c1cccc(Nc2ncc3nnn(-c4ccc(Br)cc4)c3n2)c1` [Compound 49], on GSK3β, the IC50 is 1e-08 to 1e-07 M.
`Brc1cccc(-n2nnc3cnc(Nc4ccc(-c5cc[nH]n5)cc4)nc32)c1` [Compound 50]: the IC50 at GSK3alpha is under 1e-08 M; on GSK3β it was 1e-08 to 1e-07 M.
Take `Brc1cccc(-n2nnc3cnc(Nc4ccc(-n5cncn5)cc4)nc32)c1` [Compound 51]: the IC50 on GSK3β is 1e-08 to 1e-07 M.
On to `Brc1cccc(-n2nnc3cnc(Nc4ccc(-c5nnn[nH]5)cc4)nc32)c1` [Compound 52], for which the IC50 on GSK3alpha and on GSK3β was under 1e-08 M in each case.
In the case of `Cn1nnc(-c2ccc(Nc3ncc4nnn(-c5cccc(Br)c5)c4n3)cc2)n1` [Compound 53], the IC50 at GSK3alpha was under 1e-08 M; at GSK3β it was 1e-08 to 1e-07 M.
For `Brc1cccc(-n2nnc3cnc(Nc4ccc(Nc5ncccn5)cc4)nc32)c1` [Compound 54] the same measures were under 1e-08 M and 1e-08 to 1e-07 M.
Take `CSc1ccc(-n2nnc3cnc(Nc4cccc(-c5nccn5C)c4)nc32)cc1` [Compound 55]: the IC50 on GSK3β was 1e-08 to 1e-07 M.
Still for that read-out and setting: the figure for `Cn1ccnc1-c1cccc(Nc2ncc3nnn(-c4ccc(CCO)cc4)c3n2)c1` [Compound 56] is 1e-08 to 1e-07 M; for `CC(=O)N(C)c1ccc(-n2nnc3cnc(Nc4cccc(-c5nccn5C)c4)nc32)cc1` [Compound 57] it is over 1e-07 M; for `Cc1ccc(-n2nnc3cnc(Nc4cccc(-c5nccn5C)c4)nc32)cc1Cl` [Compound 60] it is 1e-08 to 1e-07 M.
Same read-out and setting: the figure for `COc1ccc(-n2nnc3cnc(Nc4cccc(-c5nccn5C)c4)nc32)cc1F` [Compound 61] is 1e-08 to 1e-07 M; for `COc1cc(-n2nnc3cnc(Nc4cccc(-c5nccn5C)c4)nc32)cc(C(F)(F)F)c1` [Compound 63] it is under 1e-08 M; for `Cn1ccnc1-c1cccc(Nc2ncc3nnn(-c4ccc5c(c4)CCC5)c3n2)c1` [Compound 65] it is under 1e-08 M.
Still for that read-out and setting: the figure for `Cn1ccnc1-c1cccc(Nc2ncc3nnn(-c4ccc5c(c4)OCCO5)c3n2)c1` [Compound 66] is under 1e-08 M.
For the molecule `c1ccc(-n2nnc3cnc(Nc4cccc(-c5cnco5)c4)nc32)cc1` [Compound 73], the IC50 on GSK3alpha and on GSK3β was under 1e-08 M throughout.
In the case of `Cn1nnnc1-c1cccc(Nc2ncc3nnn(-c4ccccc4)c3n2)c1` [Compound 74], the IC50 on GSK3alpha and at GSK3β was under 1e-08 M in each case.
As for `COCCOCc1cccc(-n2nnc3cnc(Nc4ccc(N5CCOCC5)cc4)nc32)c1` [Compound 107], the IC50 at GSK3β was under 1e-08 M.
As for `Nc1nccc(-c2cccc(Nc3ncc4nnn(-c5cccc(CNC(=O)C6CC6)c5)c4n3)c2)n1` [Compound 119], on GSK3alpha, the IC50 is 1e-08 to 1e-07 M.
In the case of `Cn1ccnc1-c1cccc(Nc2ncc3nnn(-c4ccc5cn[nH]c5c4)c3n2)c1` [Compound 148], on GSK3β, the IC50 was 1e-08 to 1e-07 M.
For `O=C(O)c1cc(Nc2ncc3nnn(-c4cccc(F)c4)c3n2)ccc1N1CCOCC1` [Compound 150], the IC50 at GSK3alpha was 1e-08 to 1e-07 M.
As for `COCCOc1cccc(-n2nnc3cnc(Nc4ccc(OCCN5CCN(C)CC5)cc4)nc32)c1` [Compound 153], the IC50 at GSK3β was 1e-08 to 1e-07 M.
